These results are taken from PMC3173180 (The Journal of Biological Chemistry, 2011).

For data set [1], the target named is T1, HYPE-Fic (Homo sapiens, UniProt Q9BVA6).
T1 sequence (Q9BVA6 181-458): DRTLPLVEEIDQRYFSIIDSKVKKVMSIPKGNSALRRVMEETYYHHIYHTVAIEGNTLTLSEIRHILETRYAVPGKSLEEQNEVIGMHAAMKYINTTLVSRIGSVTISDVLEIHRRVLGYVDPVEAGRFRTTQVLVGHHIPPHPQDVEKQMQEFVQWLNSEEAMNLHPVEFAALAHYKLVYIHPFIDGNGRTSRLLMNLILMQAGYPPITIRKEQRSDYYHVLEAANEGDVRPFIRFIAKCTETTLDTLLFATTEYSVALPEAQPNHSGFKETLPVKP
The data set can be described thus: SDS-PAGE autoradiography of modified Cdc42. The data set is classed as biochemical.

The target of data set [2] is T2, IbpA-Fic1 (Histophilus somni, UniProt Q06277).
T2 sequence (Q06277 2994-3358): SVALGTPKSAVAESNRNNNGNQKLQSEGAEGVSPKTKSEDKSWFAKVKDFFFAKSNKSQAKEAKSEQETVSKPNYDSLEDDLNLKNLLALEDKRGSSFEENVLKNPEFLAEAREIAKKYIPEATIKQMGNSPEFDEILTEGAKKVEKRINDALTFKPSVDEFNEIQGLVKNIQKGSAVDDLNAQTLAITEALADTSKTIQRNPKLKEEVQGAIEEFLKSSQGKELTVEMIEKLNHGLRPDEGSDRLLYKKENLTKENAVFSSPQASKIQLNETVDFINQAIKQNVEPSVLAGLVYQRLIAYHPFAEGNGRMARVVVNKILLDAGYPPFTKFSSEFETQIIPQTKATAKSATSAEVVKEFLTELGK
The data set can be described thus: SDS-PAGE autoradiography of modified Cdc42. In kind it is biochemical.

Data set [3] concerns the target T3, PfhB2-Fic2 (Pasteurella multocida, UniProt Q9CPH9).
T3 sequence (Q9CPH9 3309-3609): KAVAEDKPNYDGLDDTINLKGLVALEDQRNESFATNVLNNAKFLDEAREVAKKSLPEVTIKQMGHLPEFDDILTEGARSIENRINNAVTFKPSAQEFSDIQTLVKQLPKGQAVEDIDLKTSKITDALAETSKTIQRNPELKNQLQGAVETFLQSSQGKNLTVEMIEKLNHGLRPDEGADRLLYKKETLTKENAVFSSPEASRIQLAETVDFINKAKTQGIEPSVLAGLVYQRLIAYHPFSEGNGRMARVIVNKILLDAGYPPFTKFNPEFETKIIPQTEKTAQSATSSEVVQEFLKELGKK
The data set can be described thus: SDS-PAGE autoradiography of modified Cdc42. In kind it is biochemical.

For data set [4], the target named is T4, PfhB2-Fic1 (Pasteurella multocida, UniProt Q9CPH9).
T4 sequence (Q9CPH9 2892-3191): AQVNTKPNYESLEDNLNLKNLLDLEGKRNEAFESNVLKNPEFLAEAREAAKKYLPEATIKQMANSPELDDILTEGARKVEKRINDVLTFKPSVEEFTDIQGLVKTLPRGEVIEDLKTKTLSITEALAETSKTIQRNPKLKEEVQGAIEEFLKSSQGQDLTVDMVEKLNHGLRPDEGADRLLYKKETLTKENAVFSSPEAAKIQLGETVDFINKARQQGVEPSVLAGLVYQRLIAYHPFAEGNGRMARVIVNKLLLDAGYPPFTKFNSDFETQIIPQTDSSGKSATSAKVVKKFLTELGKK
The data set can be described thus: SDS-PAGE autoradiography of modified Cdc42. The data set is classed as biochemical.

Substrate in data set [5]: Nc1ncnc2c1ncn2[C@@H]1O[C@H](COP(=O)(O)OP(=O)(O)OP(=O)(O)O)[C@@H](O)[C@H]1O
The data set can be described thus: purified protein. Particulars: pH 7.4; 25.0 °C.

Take `Nc1ncnc2c1ncn2[C@@H]1O[C@H](COP(=O)(O)OP(=O)(O)OP(=O)(O)O)[C@@H](O)[C@H]1O` [ATP]: the “SDS-PAGE autoradiography of modified Cdc42” value in data set [1] was “HYPE-Fic efficiently uses ATP, and CTP to a lesser degree, to modify Cdc42”; in data set [2], “ATP was the preferred nucleotide source for all the Fic domains tested”; in data set [3], “ATP was the preferred nucleotide source for all the Fic domains tested”; in data set [4], “ATP was the preferred nucleotide source for all the Fic domains tested”.

B1: IbpA-Fic2 (untagged) (Histophilus somni 2336) (protein)
chain: DETANKVNYQDLEDNLNLKGLISLEDDRNANFESNVLKNEKFLDEAREISKKSIPEATVKQMSHLPEFDDILTEGAKKVESRINKAITFRPSVEEFSEIQDLVKTLPKTKVIEDLSTKTNEITEALAATSKTIQRTPELKEQLKTAIEDFLQNSQGKPLTVQMIENLNHGLRPDEGEGRLLYKKENLTKENAVFSSPEAAKIQLAETVDFINRAKNEGIEPSVVGALVYQRLIAYHPFAEGNGRMARVIVNKILLDAGYPAFTKFSDEFEPQIIPQTKASTKSATSSEVVVEFLKELAKKGSKEDNEQNLEKTDRT
As for B1, in data set [5], the Michaelis-Menten constant (Km) – broadly, the concentration of substrate that gives half-maximal velocity – was determined as 730 ± 40 µM and the catalytic constant (kcat) (as a rule, the maximal rate divided by the concentration of active sites) was found to be 111 ± 2 s⁻¹.
